In patent US20110144345A1, “SULFOXYIMINO-SUBSTITUTED BENZOYL DERIVATIVE AND HERBICIDE” (NIPPON SODA CO., LTD., priority 2008, published 2011):

How the values were obtained:
[1] = tested on: rice plants; experiment: Paddy pot test, harmful effects on transplanted rice plants; type: in vivo; design: scale not given here; settings: Screening, 63 g/ha, applied at Echinochloa crus-galli 1.5-leaf stage, examined after 3 weeks
Description: (§1) Plastic pots having an area of 100 cm^2 and a depth of 10 cm were filled with paddy soil which is puddled by adding water, and seeds of Echinochloa crus-galli and Scirpus juncoides were planted in the pots. After seeding, rice plants at the 2.5-leaf stage were transplanted and the pots were filled with water. The rice plants were grown in a greenhouse. […] The herbicidal effects and harmful effects on the rice plants were examined after 3 weeks. Herbicidal effects were examined according to the examination criteria described below and were represented by the herbicidal index. [table] […] [formula]

[2] = tested on: Echinochloa crus-galli; experiment: Paddy pot test, herbicidal effect on Echinochloa crus-galli; type: in vivo; design: scale not given here; settings: Screening, 63 g/ha, applied at 1.5-leaf stage, examined after 3 weeks
Description: as §1

[3] = tested on: Scirpus juncoides; experiment: Paddy pot test, herbicidal effect on Scirpus juncoides; type: in vivo; design: scale not given here; settings: Screening, 63 g/ha, examined after 3 weeks
Description: as §1

Rice (harmful effects on the rice plants, index) [1] | melting point | SMILES | Echinochloa crus-galli (herbicidal index) [2] | Scripus juncoides (herbicidal index) [3]
0 | 159 to 161 °C | CCn1ncc(C(=O)c2ccc(C#N)c(N=S3(=O)CCCCC3)c2Cl)c1O [Example 187] | 10 | 5
0 | 177 to 179 °C | Cn1ncc(C(=O)c2cccc(N=S3(=O)CCCCC3)c2Br)c1O [Example 196] | 6 | 8
0 | 121 to 123 °C | COc1c(N=S2(=O)CCCCC2)cccc1C(=O)c1cnn(C)c1O [Example 131] | 6 | 8
